Bounds are passed on as bounds.

Assay in all cases: EC50 assay: Ba/F3 stable cell proliferation (CCK-8, 72 h)
Assay type in all cases: cell-based

The target of assay [1] is T1, Ba/F3 stable cells (Homo sapiens, UniProt P00533, DUP767-769, cells depend on it).
T1 construct: EC50 Ba/F3-EGFR V769-D770insASV; other: Ba/F3-EGFR V769-D770insASV cells, 72 h, CCK-8
To be noted: Ba/F3-EGFR V769-D770insASV cells. In a few lines:
(§1)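 Ba/F3 stable cells were seeded at 4,000 cells/90 μL/well in 96-well plates and held 2 h at 37° C. in 5% CO2, then given 10 μL of serially titrated compound (0.1% DMSO final). After 72 h at 37° C., CCK-8 reagent was added for 4 hours and absorbance read at 450 nm to derive EC50.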

The target of assay [2] is T2, Ba/F3 stable cells (Homo sapiens, UniProt P00533, DUP768-770, cells depend on it).
T2 construct: EC50 Ba/F3-EGFR D770-N771insSVD; other: Ba/F3-EGFR D770-N771insSVD cells, 72 h, CCK-8
T2 sequence (P00533 with tags, fused parts or gaps DUP768-770): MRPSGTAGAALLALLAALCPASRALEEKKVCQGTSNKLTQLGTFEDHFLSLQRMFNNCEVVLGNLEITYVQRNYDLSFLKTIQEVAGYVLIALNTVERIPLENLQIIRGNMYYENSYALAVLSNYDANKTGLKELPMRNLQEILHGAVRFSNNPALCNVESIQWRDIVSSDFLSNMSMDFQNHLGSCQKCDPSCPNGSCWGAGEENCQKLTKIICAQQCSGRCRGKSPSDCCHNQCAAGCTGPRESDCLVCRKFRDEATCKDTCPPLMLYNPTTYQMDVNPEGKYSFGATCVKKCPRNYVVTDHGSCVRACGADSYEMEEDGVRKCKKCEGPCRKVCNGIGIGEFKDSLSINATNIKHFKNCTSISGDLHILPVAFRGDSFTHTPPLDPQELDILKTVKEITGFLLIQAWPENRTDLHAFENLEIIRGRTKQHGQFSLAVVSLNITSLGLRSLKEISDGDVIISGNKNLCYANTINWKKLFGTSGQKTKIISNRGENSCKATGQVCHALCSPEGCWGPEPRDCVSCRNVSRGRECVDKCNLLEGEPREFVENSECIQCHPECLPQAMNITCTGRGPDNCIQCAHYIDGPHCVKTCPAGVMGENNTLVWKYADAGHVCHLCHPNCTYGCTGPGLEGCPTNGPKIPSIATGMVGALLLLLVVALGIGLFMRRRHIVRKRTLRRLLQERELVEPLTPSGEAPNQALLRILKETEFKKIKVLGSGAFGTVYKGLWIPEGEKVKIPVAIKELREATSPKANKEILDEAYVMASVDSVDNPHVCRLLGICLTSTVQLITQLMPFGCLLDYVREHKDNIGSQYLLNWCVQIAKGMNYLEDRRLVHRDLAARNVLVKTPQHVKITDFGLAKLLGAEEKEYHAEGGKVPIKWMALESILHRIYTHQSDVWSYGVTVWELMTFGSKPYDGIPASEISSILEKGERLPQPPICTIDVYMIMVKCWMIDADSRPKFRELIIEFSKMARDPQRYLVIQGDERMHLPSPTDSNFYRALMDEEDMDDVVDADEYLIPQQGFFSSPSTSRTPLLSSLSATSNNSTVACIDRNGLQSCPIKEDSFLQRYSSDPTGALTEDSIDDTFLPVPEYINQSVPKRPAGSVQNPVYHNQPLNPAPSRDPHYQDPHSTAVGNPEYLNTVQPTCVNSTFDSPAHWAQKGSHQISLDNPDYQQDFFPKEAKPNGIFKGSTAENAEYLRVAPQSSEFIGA
As to conditions: Ba/F3-EGFR D770-N771insSVD cells. In a few lines:
as §1

Assay [3] addresses T3, Ba/F3 stable cells (Homo sapiens, UniProt P00533, DUP771-773, cells depend on it).
T3 construct: EC50 Ba/F3-EGFR H773-V774insNPH; other: Ba/F3-EGFR H773-V774insNPH cells, 72 h, CCK-8
To be noted: Ba/F3-EGFR H773-V774insNPH cells. In a few lines:
as §1

Assay [4] deals with T4, Ba/F3 stable cells (Homo sapiens, UniProt P00533, INS763FQEA, cells depend on it).
T4 construct: EC50 Ba/F3-EGFR A763-Y764insFQEA; other: Ba/F3-EGFR A763-Y764insFQEA cells, 72 h, CCK-8
As to conditions: Ba/F3-EGFR A763-Y764insFQEA cells. In a few lines:
as §1

For assay [5], the target named is T5, Ba/F3 stable cells (Homo sapiens, UniProt P00533, T790M/L858R, cells depend on it).
T5 construct: EC50 Ba/F3-EGFR L858R-T790M; other: Ba/F3-EGFR L858R-T790M cells, 72 h, CCK-8
As to conditions: Ba/F3-EGFR L858R-T790M cells. A digest of the protocol: as §1

In assay [6] the target is T6, Ba/F3 stable cells (Homo sapiens, UniProt P04626, DUP772-775, cells depend on it).
T6 construct: EC50 Ba/F3-HER2 A775-G776insYVMA; other: Ba/F3-HER2 A775-G776insYVMA cells, 72 h, CCK-8
T6 sequence (P04626 with tags, fused parts or gaps DUP772-775): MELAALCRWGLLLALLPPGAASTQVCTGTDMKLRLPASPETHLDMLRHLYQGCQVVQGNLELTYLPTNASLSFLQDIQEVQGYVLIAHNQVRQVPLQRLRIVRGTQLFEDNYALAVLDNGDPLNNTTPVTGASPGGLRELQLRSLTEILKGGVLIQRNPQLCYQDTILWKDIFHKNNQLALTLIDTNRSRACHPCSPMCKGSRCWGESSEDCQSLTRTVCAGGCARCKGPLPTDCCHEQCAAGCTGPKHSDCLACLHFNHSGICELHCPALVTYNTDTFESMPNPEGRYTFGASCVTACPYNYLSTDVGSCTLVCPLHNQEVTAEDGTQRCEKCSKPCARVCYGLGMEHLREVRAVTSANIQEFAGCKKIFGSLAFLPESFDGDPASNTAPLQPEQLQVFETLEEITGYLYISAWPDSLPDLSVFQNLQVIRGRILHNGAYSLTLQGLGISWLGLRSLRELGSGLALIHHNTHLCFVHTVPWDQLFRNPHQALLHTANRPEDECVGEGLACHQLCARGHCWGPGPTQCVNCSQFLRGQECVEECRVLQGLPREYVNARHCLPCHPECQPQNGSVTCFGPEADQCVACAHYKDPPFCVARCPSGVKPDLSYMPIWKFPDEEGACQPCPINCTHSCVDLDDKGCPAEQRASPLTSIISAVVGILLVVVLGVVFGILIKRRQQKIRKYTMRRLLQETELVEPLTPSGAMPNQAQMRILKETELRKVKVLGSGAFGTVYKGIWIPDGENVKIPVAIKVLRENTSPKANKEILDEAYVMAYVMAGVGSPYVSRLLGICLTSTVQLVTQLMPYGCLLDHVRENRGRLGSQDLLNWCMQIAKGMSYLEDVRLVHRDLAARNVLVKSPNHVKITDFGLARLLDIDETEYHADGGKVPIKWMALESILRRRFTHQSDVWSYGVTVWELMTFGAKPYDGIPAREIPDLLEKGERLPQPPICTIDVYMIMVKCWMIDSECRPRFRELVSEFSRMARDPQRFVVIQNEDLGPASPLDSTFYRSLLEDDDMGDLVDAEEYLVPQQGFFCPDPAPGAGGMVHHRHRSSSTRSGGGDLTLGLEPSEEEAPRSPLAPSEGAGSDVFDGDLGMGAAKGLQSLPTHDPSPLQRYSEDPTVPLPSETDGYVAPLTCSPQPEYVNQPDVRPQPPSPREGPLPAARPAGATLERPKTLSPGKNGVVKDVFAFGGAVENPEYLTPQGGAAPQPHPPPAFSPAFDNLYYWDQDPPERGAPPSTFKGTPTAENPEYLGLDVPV
As to conditions: Ba/F3-HER2 A775-G776insYVMA cells. In a few lines: as §1

T3 sequence (P00533 with tags, fused parts or gaps DUP771-773): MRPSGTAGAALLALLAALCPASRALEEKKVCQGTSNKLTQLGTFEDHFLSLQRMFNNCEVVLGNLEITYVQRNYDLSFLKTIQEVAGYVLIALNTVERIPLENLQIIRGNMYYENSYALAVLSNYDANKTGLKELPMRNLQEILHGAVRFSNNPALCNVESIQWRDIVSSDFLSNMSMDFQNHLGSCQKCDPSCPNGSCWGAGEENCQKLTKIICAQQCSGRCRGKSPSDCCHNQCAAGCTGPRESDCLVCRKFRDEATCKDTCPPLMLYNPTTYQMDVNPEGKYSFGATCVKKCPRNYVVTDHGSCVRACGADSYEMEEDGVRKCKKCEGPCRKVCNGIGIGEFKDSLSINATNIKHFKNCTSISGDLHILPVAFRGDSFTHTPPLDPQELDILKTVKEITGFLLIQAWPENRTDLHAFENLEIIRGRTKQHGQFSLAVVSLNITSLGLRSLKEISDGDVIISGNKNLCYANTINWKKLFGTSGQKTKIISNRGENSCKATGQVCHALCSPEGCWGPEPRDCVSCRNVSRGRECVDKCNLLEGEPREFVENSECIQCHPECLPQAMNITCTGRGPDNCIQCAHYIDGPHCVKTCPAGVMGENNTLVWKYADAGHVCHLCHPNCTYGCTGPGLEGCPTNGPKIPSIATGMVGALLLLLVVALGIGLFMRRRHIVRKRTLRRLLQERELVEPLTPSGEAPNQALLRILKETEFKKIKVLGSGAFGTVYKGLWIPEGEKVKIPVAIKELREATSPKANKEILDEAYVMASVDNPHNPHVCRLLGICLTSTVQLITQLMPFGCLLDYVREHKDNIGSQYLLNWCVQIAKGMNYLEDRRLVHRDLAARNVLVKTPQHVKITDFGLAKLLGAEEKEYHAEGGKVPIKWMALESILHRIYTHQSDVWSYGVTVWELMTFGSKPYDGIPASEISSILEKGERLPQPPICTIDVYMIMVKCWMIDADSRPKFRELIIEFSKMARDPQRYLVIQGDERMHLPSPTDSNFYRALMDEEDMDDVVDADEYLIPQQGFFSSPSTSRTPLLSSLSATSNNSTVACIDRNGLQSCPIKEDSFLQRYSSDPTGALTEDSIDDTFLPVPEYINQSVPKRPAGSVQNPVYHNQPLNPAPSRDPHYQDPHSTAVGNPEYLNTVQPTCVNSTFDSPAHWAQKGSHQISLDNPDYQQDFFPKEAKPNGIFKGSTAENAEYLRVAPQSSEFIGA
T1 sequence (P00533 with tags, fused parts or gaps DUP767-769): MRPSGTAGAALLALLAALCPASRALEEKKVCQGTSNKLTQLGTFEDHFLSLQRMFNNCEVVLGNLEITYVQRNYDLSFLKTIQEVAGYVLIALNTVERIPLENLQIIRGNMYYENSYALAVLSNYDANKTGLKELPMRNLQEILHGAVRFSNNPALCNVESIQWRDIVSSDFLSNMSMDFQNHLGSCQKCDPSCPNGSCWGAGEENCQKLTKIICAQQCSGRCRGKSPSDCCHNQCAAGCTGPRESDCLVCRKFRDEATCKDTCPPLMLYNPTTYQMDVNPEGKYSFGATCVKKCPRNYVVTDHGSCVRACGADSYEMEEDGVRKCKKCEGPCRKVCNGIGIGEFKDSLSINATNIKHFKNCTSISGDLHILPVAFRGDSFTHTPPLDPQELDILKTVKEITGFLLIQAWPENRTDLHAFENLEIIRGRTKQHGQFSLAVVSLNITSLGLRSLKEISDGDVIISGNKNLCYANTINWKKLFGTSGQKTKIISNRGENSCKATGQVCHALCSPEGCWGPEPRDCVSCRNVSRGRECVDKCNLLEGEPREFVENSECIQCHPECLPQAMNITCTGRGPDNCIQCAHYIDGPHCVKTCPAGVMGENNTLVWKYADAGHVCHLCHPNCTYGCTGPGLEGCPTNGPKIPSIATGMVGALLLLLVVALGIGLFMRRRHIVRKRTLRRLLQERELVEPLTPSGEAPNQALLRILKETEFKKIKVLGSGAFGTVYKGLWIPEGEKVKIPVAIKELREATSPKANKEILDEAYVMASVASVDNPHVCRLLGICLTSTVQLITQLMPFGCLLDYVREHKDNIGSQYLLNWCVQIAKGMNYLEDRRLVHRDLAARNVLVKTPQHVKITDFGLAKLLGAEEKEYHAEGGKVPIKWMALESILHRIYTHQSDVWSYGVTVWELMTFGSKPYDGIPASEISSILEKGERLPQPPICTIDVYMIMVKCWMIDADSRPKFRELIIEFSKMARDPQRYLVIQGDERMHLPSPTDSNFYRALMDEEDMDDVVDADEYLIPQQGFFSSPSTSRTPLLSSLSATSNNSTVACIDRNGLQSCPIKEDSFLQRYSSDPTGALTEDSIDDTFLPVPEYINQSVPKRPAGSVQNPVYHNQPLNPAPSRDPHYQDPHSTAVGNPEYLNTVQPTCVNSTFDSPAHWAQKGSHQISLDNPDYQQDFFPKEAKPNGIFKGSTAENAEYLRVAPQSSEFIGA

In the case of `C=CC(=O)N1CCC(Oc2cc3c(NCc4ccc(Cl)c(Cl)c4)ncnc3cc2OC)CC1` [Compound 115, 1-(4-((4-((3,4-dichlorobenzyl)amino)-7-methoxyquinazolin-6-yl)oxy)piperidin-1-yl)prop-2-en-1-one], the EC50 was above 1000 nM in assay [1]; above 1000 nM in assay [2]; above 1000 nM in assay [3]; at most 200 nM in assay [4]; 200 to 1000 nM in assay [5]; at most 200 nM in assay [6].

In the case of `C=CC(=O)N1CCC(Oc2cc3c(NCc4cccc(Cl)c4F)ncnc3cc2OC)CC1` [Compound 116, 1-(4-((4-((3-chloro-2-fluorobenzyl)amino)-7-methoxyquinazolin-6-yl)oxy)piperidin-1-yl)prop-2-en-1-one], the EC50 in assay [1] is at most 200 nM; in assay [2], 200 to 1000 nM; in assay [3] it was at most 200 nM; in assay [4], at most 200 nM; in assay [5] it was 200 to 1000 nM; in assay [6], at most 200 nM.

Take `C=CC(=O)N1CCC(Oc2cc3c(NCc4cc(Cl)cc(Cl)c4)ncnc3cc2OC)CC1` [Compound 117, 1-(4-((4-((3,5-dichlorobenzyl)amino)-7-methoxyquinazolin-6-yl)oxy)piperidin-1-yl)prop-2-en-1-one]: the EC50 is above 1000 nM in assay [1]; above 1000 nM in assay [2]; above 1000 nM in assay [3]; 200 to 1000 nM in assay [4]; 200 to 1000 nM in assay [5]; above 1000 nM in assay [6].

On to `C=CC(=O)N1CCC(Oc2cc3c(NCc4cc(Cl)ccc4F)ncnc3cc2OC)CC1` [Compound 118, 1-(4-((4-((5-chloro-2-fluorobenzyl)amino)-7-methoxyquinazolin-6-yl)oxy)piperidin-1-yl)prop-2-en-1-one], for which the EC50 was above 1000 nM in assay [1]; above 1000 nM in assay [2]; above 1000 nM in assay [3]; at most 200 nM in assay [4]; above 1000 nM in assay [5]; 200 to 1000 nM in assay [6].

Turning to `C=CC(=O)N1CCC(Oc2cc3c(NCc4cc(Cl)ccc4Cl)ncnc3cc2OC)CC1` [Compound 119, 1-(4-((4-((2,5-dichlorobenzyl)amino)-7-methoxyquinazolin-6-yl)oxy)piperidin-1-yl)prop-2-en-1-one], the EC50 in assay [1] was above 1000 nM; in assay [2] it was above 1000 nM; in assay [3], above 1000 nM; in assay [4], at most 200 nM; in assay [5] it was above 1000 nM; in assay [6] it was above 1000 nM.

Consider `C=CC(=O)N1CCC(Oc2cc3c(NCc4cccc(Br)c4)ncnc3cc2OC)CC1` [Compound 120, 1-(4-((4-((3-bromobenzyl)amino)-7-methoxyquinazolin-6-yl)oxy)piperidin-1-yl)prop-2-en-1-one], for which the EC50 in assay [1] was at most 200 nM; in assay [2], at most 200 nM; in assay [3] it was at most 200 nM; in assay [4] it was at most 200 nM; in assay [5], 200 to 1000 nM; in assay [6], 200 to 1000 nM.

On to `C=CC(=O)N1CCC(Oc2cc3c(NCc4cccc(C)c4)ncnc3cc2OC)CC1` [Compound 121, 1-(4-((7-methoxy-4-((3-methylbenzyl)amino)quinazolin-6-yl)oxy)piperidin-1-yl)prop-2-en-1-one], for which the EC50 in assay [1] is 200 to 1000 nM; in assay [2], 200 to 1000 nM; in assay [3], 200 to 1000 nM; in assay [4], at most 200 nM; in assay [5], 200 to 1000 nM; in assay [6], 200 to 1000 nM.

For the compound `C=CC(=O)N1CCC(Oc2cc3c(NCc4cc(F)cc(Cl)c4)ncnc3cc2OC)CC1` [Compound 122, 1-(4-((4-((3-chloro-5-fluorobenzyl)amino)-7-methoxyquinazolin-6-yl)oxy)piperidin-1-yl)prop-2-en-1-one], the EC50 in assay [1] was 200 to 1000 nM; in assay [2] it was 200 to 1000 nM; in assay [3], 200 to 1000 nM; in assay [4], at most 200 nM; in assay [5], 200 to 1000 nM; in assay [6] it was above 1000 nM.

As for `C=CC(=O)N1CCC(Oc2cc3c(NCc4ccccc4)ncnc3cc2OC)CC1` [Compound 123, 1-(4-((4-(benzylamino)-7-methoxyquinazolin-6-yl)oxy)piperidin-1-yl)prop-2-en-1-one], the EC50 in assay [1] was at most 200 nM; in assay [2], 200 to 1000 nM; in assay [3], at most 200 nM; in assay [4] it was at most 200 nM; in assay [5], 200 to 1000 nM; in assay [6], 200 to 1000 nM.

With `C=CC(=O)N1CCC(Oc2cc3c(NCc4cccc(C#N)c4)ncnc3cc2OC)CC1` [Compound 124, 3-(((6-((1-acryloylpiperidin-4-yl)oxy)-7-methoxyquinazolin-4-yl)amino)methyl)benzonitrile], the EC50 in assay [1] was above 1000 nM; in assay [2] it was above 1000 nM; in assay [3], above 1000 nM; in assay [4] it was at most 200 nM; in assay [5], above 1000 nM; in assay [6] it was above 1000 nM.

For `C=CC(=O)N1CCC(Oc2cc3c(NCc4cccc(I)c4)ncnc3cc2OC)CC1` [Compound 125, 1-(4-((4-((3-iodobenzyl)amino)-7-methoxyquinazolin-6-yl)oxy)piperidin-1-yl)prop-2-en-1-one], the EC50 was 200 to 1000 nM in assay [1]; 200 to 1000 nM in assay [2]; 200 to 1000 nM in assay [3]; at most 200 nM in assay [4]; 200 to 1000 nM in assay [5]; 200 to 1000 nM in assay [6].

As for `C=CC(=O)N1CCC(Oc2cc3c(NC(C(=O)O)c4cccc(Cl)c4)ncnc3cc2OC)CC1` (stereo not drawn) [Compound 126, 2-((6-((1-acryloylpiperidin-4-yl)oxy)-7-methoxyquinazolin-4-yl)amino)-2-(3-chlorophenyl)acetic acid], the concentration for a half-maximal effect (EC50) in assay [1], in assay [2], in assay [3], in assay [4], in assay [5] and in assay [6] was above 1000 nM in each case.

`C=CC(=O)N1CCC(Oc2cc3c(NC(C(N)=O)c4cccc(Cl)c4)ncnc3cc2OC)CC1` (stereo not drawn) [Compound 127, 2-((6-((1-acryloylpiperidin-4-yl)oxy)-7-methoxyquinazolin-4-yl)amino)-2-(3-chlorophenyl)acetamide]: the EC50 was 200 to 1000 nM in assay [1]; above 1000 nM in assay [2]; above 1000 nM in assay [3]; at most 200 nM in assay [4]; above 1000 nM in assay [5]; above 1000 nM in assay [6].

For the compound `C=CC(=O)N1CCC(Oc2cc3c(NC(CC(=O)O)c4cccc(Cl)c4)ncnc3cc2OC)CC1` (stereo not drawn) [Compound 129, 3-((6-((1-acryloylpiperidin-4-yl)oxy)-7-methoxyquinazolin-4-yl)amino)-3-(3-chlorophenyl)propanoic acid], the EC50 in assay [1], in assay [2], in assay [3], in assay [4], in assay [5] and in assay [6] was above 1000 nM in each case.

Turning to `C=CC(=O)N1CCC(Oc2cc3c(NC(CC(N)=O)c4cccc(Cl)c4)ncnc3cc2OC)CC1` (stereo not drawn) [Compound 130, 3-((6-((1-acryloylpiperidin-4-yl)oxy)-7-methoxyquinazolin-4-yl)amino)-3-(3-chlorophenyl)propanamide], the EC50 in assay [1] was at most 200 nM; in assay [2], above 1000 nM; in assay [3], 200 to 1000 nM; in assay [4], at most 200 nM; in assay [5], above 1000 nM; in assay [6] it was 200 to 1000 nM.

Turning to `C=CC(=O)N1CCC(Oc2cc3c(NC(CCO)c4cccc(Cl)c4)ncnc3cc2OC)CC1` (stereo not drawn) [Compound 131, 1-(4-((4-((1-(3-chlorophenyl)-3-hydroxypropyl)amino)-7-methoxyquinazolin-6-yl)oxy)piperidin-1-yl)prop-2-en-1-one], the EC50 in assay [1] is at most 200 nM; in assay [2], at most 200 nM; in assay [3], at most 200 nM; in assay [4], at most 200 nM; in assay [5] it was above 1000 nM; in assay [6], at most 200 nM.

With `C=CC(=O)N1CCCC(Oc2cc3c(Nc4ccc(Cl)c(Cl)c4F)ncnc3cc2OC)C1` (stereo not drawn) [Compound 132, 1-(3-((4-((3,4-dichloro-2-fluorophenyl)amino)-7-methoxyquinazolin-6-yl)oxy)piperidin-1-yl)prop-2-en-1-one], the EC50 in assay [1] is 200 to 1000 nM; in assay [2], 200 to 1000 nM; in assay [3] it was 200 to 1000 nM; in assay [4], at most 200 nM; in assay [5], above 1000 nM; in assay [6] it was 200 to 1000 nM.

The record behind these values is patent US20250243171A1, “QUINAZOLINE COMPOUNDS FOR TREATMENT OF DISEASE” (Arthrosi Therapeutics, Inc., priority 2021, published 2025).
